Columns and labels:
TNF-α [1] = assay: TNF-α level in THP1 cell line differentiated by PMA (ELISA); type: cell-based, human; settings: THP-1 differentiated by PMA, 1 μM peptide 1 hour; for reduction of expression level of TNF-α compared to group treated with LPS and estrogen: LPS 10 ng/ml; for reduction of TNF-α level compared to control group treated only with LPS: LPS 10 ng/ml 2 hours
Procedure: Experiment was carried out using THP-1 cell line (American Type Culture Collection (ATCC), Manassas, Va., USA) which is human acute monocytic leukemia.
THP-1 cells were incubated to reach the number of 1×10^5 cells per well in a 96-well plate with RPMI 1640 medium for 24 hrs, followed by addition of […] of PMA (phorbol 12-myristate 13-acetate) for the differentiation into macrophage. After differentiation of THP-1 into macrophage by PMA for a day, LPS was treated for 2 hrs and washed off. Starvation for an hour and PEP1 treatment followed.
THP-1 cell differentiated by PMA was treated with LPS (lipopolysaccharide; 10 ng/ml, Sigma) for 2 hours, followed by 2 times washes with PBS. To the cells, OPTI-MEM culture medium was added to induce cell starvation for an hour, and 1 μM of 161 peptides was taken out and incubated for an hour. After incubation, TNF-α level was measured by using the ELISA kit and the peptides which reduce the TNF-α level were screened (FIG. 17 to FIG. 35).

TNF-α [2] = assay: TNF-α inhibitory effect in PBMC-derived monocyte (ELISA); type: cell-based, human; settings: PBMC-derived monocytes, 4 μM peptide 2 hrs; for TNF-α inhibiting effect compared to the group treated with LPS and estrogen: LPS 10 ng/ml, estrogen 20 nM; for TNF-α inhibiting effect compared to the control group treated with only LPS: LPS 10 ng/ml 2 hours
Procedure: PBMC (peripheral blood mononuclear cells) layer was separated from blood samples (50 ml) collected in healthy subjects using Biocoll Separating Solution (Biochrom AG, Berlin, Germany). The collected PBMC were enriched in RPMI 1640 medium containing 20% human serum for 30 mins, and then transferred to 100-mm polystyeren cell culture plate coated with human serum for incubation for 2 hrs at 37° C., 5% CO^2 incubator. Monocytes were detached from the bottom of the plate using cold PBS, and incubated to reach the number of 1×10^5 cell/well in 96-well plate with RPMI 1640 medium (supplemented with penicillin-streptomycin; 100 mg/ml, human serum; 20%) over night.
ELISA was performed to find out how the peptides of the PEP RIA series influence TNF-α level. PBMC-derived monocytes were incubated to reach the number of 1×10^5 cells per well in a 96-well plate and then treated with LPS (lipopolysaccharide; 10 ng/ml, Sigma) for 2 hours. To the monocytes that were washed three times with PBS, OPTI-MEM culture medium was added to induce cell starvation for an hour, 4 μM of the peptide was taken out and incubated for 2 hours. There were three negative control groups. The first group was not treated with anything. The second group that was treated with estrogen (in this experiment, estradiol was used as a kind of estrogen). The third group was treated with LPS (10 ng/ml) or with LPS (10 ng/ml) as well as estrogen (20 nM). PEP1 that was confirmed to have TNF-α inhibiting activity was used as a positive control to measure TNF-α inhibiting activity. After incubation, TNF-α was measured by following the ELISA kit manual (R&D, Minneapolis, Minn., USA). The details of quantification method can be found in Experiment 2.2 of Example 1.
Using the method stated above, Peptides with TNF-α inhibiting effect were screened. PBMC-derived monocytes were stimulated with LPS (10 ng/ml), which is endotoxin, for 2 hours and were induced to starve by adding OPTI-MEM for 1 hour. After that, 4 μM of 161 peptides were treated and incubated for 2 hrs. The amount of TNF-α in the cell culture medium was measured using ELISA, and the peptides with TNF-α inhibiting effect were screened by comparing to the negative and positive controls (FIG. 1 to FIG. 16).

Row | Sequence | reduction of expression level of TNF-α compared to group treated with LPS and estrogen (TNF-α [1]) | TNF-α inhibiting effect compared to the group treated with LPS and estrogen (TNF-α [2]) | reduction of TNF-α level compared to control group treated only with LPS (TNF-α [1]) | TNF-α inhibiting effect compared to the control group treated with only LPS (TNF-α [2])
1 | RFHACVLQLPFHQQVWKNPT (listed as Homo sapiens) [SEQ ID NO: 156] | reduce the expression level of TNF-α |  |  | 
2 | GTRHSHPSVGRQHHAGPPST (listed as Homo sapiens) [SEQ ID NO: 120] |  | showed TNF-α inhibiting effect |  | 
3 | EDTDPRRLVQLLRQHSSPWQ (listed as Homo sapiens) [SEQ ID NO: 70] |  | showed TNF-α inhibiting effect | appeared to reduce the TNF-α level | 
4 | SVLNYERARR (listed as Homo sapiens) [SEQ ID NO: 15] | reduce the expression level of TNF-α |  | appeared to reduce the TNF-α level | 
5 | AQCPYGVLLKTHCPLRAAVT (listed as Homo sapiens) [SEQ ID NO: 68] |  |  | appeared to reduce the TNF-α level | 
6 | LLVTPHLTHAKTFLRTLVRG (listed as Homo sapiens) [SEQ ID NO: 149] |  | showed TNF-α inhibiting effect | appeared to reduce the TNF-α level | showed TNF-α inhibiting effect
7 | GASVLGLDDI (listed as Homo sapiens) [SEQ ID NO: 13] | reduce the expression level of TNF-α |  | appeared to reduce the TNF-α level | 
8 | QMPAHGLFPWCGLLLDTRTL (listed as Homo sapiens) [SEQ ID NO: 94] |  |  | appeared to reduce the TNF-α level | 
9 | GLLGASVLG (listed as Homo sapiens) [SEQ ID NO: 29] | reduce the expression level of TNF-α | showed TNF-α inhibiting effect | appeared to reduce the TNF-α level | 
10 | RTFVLRVRAQDPPPE (listed as Homo sapiens) [SEQ ID NO: 7] | reduce the expression level of TNF-α |  | appeared to reduce the TNF-α level | 
11 | LGLDDIHRAWRTFVLRVRAQ (listed as Homo sapiens) [SEQ ID NO: 82] |  | showed TNF-α inhibiting effect |  | 
12 | RFMCHHAVRIRGKSYVQCQG (listed as Homo sapiens) [SEQ ID NO: 146] |  | showed TNF-α inhibiting effect | appeared to reduce the TNF-α level | showed TNF-α inhibiting effect
13 | LLGASVLGL (listed as Homo sapiens) [SEQ ID NO: 11] |  |  |  | showed TNF-α inhibiting effect
14 | RLPQRYWQMRPLFLELLGNH (listed as Homo sapiens) [SEQ ID NO: 67] |  |  | appeared to reduce the TNF-α level | 
15 | NKLFAGIRRDGLLLRLVDDF (listed as Homo sapiens) [SEQ ID NO: 148] |  | showed TNF-α inhibiting effect | appeared to reduce the TNF-α level | showed TNF-α inhibiting effect
16 | GVPLGLPSPGARRRGGSASR (GVPLGLPAPGARRRGGSASR; listed as Homo sapiens) [SEQ ID NO: 116] |  |  |  | showed TNF-α inhibiting effect
17 | SRPPRPWDTPCPPVYAETKH (listed as Homo sapiens) [SEQ ID NO: 121] |  | showed TNF-α inhibiting effect |  | 

Row | Sequence | reduction of expression level of TNF-α compared to group treated with LPS and estrogen (TNF-α [1]) | TNF-α inhibiting effect compared to the group treated with LPS and estrogen (TNF-α [2]) | reduction of TNF-α level compared to control group treated only with LPS (TNF-α [1]) | TNF-α inhibiting effect compared to the control group treated with only LPS (TNF-α [2])
18 | VLGLDDIHRA (listed as Homo sapiens) [SEQ ID NO: 12] | reduce the expression level of TNF-α |  | appeared to reduce the TNF-α level | 
19 | SVLGLDDIH (listed as Homo sapiens) [SEQ ID NO: 30] | reduce the expression level of TNF-α |  | appeared to reduce the TNF-α level | 
20 | SGPRRRLGCERAWMHSVREA (SGPRRRLGCERAWNHSVREA; listed as Homo sapiens) [SEQ ID NO: 115] |  |  |  | showed TNF-α inhibiting effect
21 | FFLRVISDTASLCYSILKAK (listed as Homo sapiens) [SEQ ID NO: 157] | reduce the expression level of TNF-α |  |  | 
22 | QWLCHQAFLLKLTRHRVTTV (QWLCHQAFLLKLTRHRVTYV; listed as Homo sapiens) [SEQ ID NO: 159] | reduce the expression level of TNF-α |  |  | 
23 | YERARRPGL (listed as Homo sapiens) [SEQ ID NO: 10] | reduce the expression level of TNF-α |  | appeared to reduce the TNF-α level | 
24 | AERLTSRVKALFSVL (listed as Homo sapiens) [SEQ ID NO: 9] | reduce the expression level of TNF-α |  | appeared to reduce the TNF-α level | showed TNF-α inhibiting effect
25 | WMPGTPRRLPRLPQRYWQMR (listed as Homo sapiens) [SEQ ID NO: 124] |  |  |  | showed TNF-α inhibiting effect
26 | CGPPLYQLGAATQARPPPHA (listed as Homo sapiens) [SEQ ID NO: 114] |  |  | appeared to reduce the TNF-α level | 
27 | MPRAPRCRAVRSLLRSHYRE (listed as Homo sapiens) [SEQ ID NO: 48] |  | showed TNF-α inhibiting effect |  | 
28 | DEALGGTAFVQMPAHGLFPW (listed as Homo sapiens) [SEQ ID NO: 151] |  |  | appeared to reduce the TNF-α level | 
29 | RTRGPSDRGFCVVSPARPAE (listed as Homo sapiens) [SEQ ID NO: 61] |  | showed TNF-α inhibiting effect |  | 
30 | LKRVQLRELSEAEVRQ (listed as Homo sapiens) [SEQ ID NO: 47] |  | showed TNF-α inhibiting effect |  | 
31 | LFSVLNYERARRPGLLGASV (listed as Homo sapiens) [SEQ ID NO: 81] |  | showed TNF-α inhibiting effect |  | 
32 | NRGFKAGRNMRRKLFGVLRL (listed as Homo sapiens) [SEQ ID NO: 96] |  | showed TNF-α inhibiting effect |  | showed TNF-α inhibiting effect
33 | FHQQVWKNPTFFLRVISDTA (listed as Homo sapiens) [SEQ ID NO: 99] |  | showed TNF-α inhibiting effect |  | 
